RP-LC retention time data for 81 compounds are collected here from the METLIN SMRT retention time set (Domingo-Almenara et al. 2019).

The nature of the data set: gradient 5% acetonitrile 3 min, to 50% in 2 min, to 85% in 15 min, held 3 min, 100 µL/min. The settings on record: column: Zorbax Extend-C18 2.1 x 50 mm; eluents: water / acetonitrile, 0.1% formic acid. Put shortly:
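Retention times come from adduct peaks that were picked computationally and then checked by hand. The standards, pure and pooled in mixtures of ~100 molecules, were run on a Zorbax Extend-C18 column (2.1 × 50 mm, 1.8 μm) at 100 μL/min with water and acetonitrile, each with 0.1% formic acid. Detection was by quadrupole time-of-flight mass spectrometry in positive and negative ionization mode, with a dead volume of 40 μL and a dwell volume of 900 μL.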
Consider `Cc1ccc(-c2cnn3c(N4CCN(c5cccc(C)n5)CC4)cc(C)nc23)cc1`, for which the RP-LC retention time worked out at 776 s. The same measure for `CSc1cccc(NC(=O)c2nnn(-c3ccccc3)c2C)c1`: 1060 s; for `CCOc1ccc(OCC)c(NC(=O)CCc2c(-c3ccc(Cl)cc3)nc3ccccn23)c1`: 788 s; for `Cc1ccc(-c2coc(-c3ccc(NC(=O)NCc4cccc(F)c4)cc3)n2)c(C)c1`: 1200 s.

Turning to `O=[N+]([O-])c1ccc(Sc2ncccn2)c([N+](=O)[O-])c1`, the RP-LC retention time stood at 900 s. Then `Brc1cn2c(Nc3ccc4c(c3)OCO4)c(-c3ccccc3)nc2cn1`, with 940 s; and `Cc1noc(C)c1-c1ccc(S(=O)(=O)Nc2cccc(Cl)c2)cc1`, with 966 s; and `CC(=O)c1cccc(NC(=O)Nc2cccc(-c3ccc(N4CCCC4)nn3)c2)c1`, with 654 s.

As for `Cc1ccc(N2CCN(C(=O)C(C)(C)C)CC2)nn1`, the RP-LC retention time came out at 531 s. Then `Cc1sc(-c2nnc(C(C)C)o2)cc1NC(=O)C1CCC1`, with 892 s; and `COc1ccc(-c2cn3c(CC(=O)Nc4ccccc4OC)csc3n2)cc1`, with 748 s. Then `OC(CN1CCNCC1)Cn1c2ccc(Br)cc2c2cc(Br)ccc21` (stereo unspecified), with 732 s. The same measure for `COc1cccc(C2Cn3nnc(-c4nc(-c5ccccc5C)no4)c3CO2)c1` (stereo unspecified): 1180 s; for `COc1cccc(CNC(=O)C2(C)CCCN(C(=O)Nc3ccccc3C)C2)c1` (stereo unspecified): 895 s. On to `Cn1c(SCC(=O)c2ccccc2OC(F)F)nc2ccccc21`, for which the RP-LC retention time was 808 s. Consider `Cc1cnc(C(=O)N2CCC(c3noc(-c4cnccn4)n3)C2)cn1` (stereo unspecified), for which the RP-LC retention time is 630 s. The same measure for `c1ccc(OCCC2CCN(Cc3ccc4[nH]ccc4c3)C2)cc1` (stereo unspecified): 726 s; for `c1cc(-c2nc(-c3ccc4c(c3)ncn4CCN3CCCCC3)no2)cs1`: 609 s. The same measure for `COC(=O)c1ccc(CSc2nnc(NC(=O)c3nc4ccccc4s3)s2)o1`: 904 s; for `COc1cccc(N2CCN(C(=O)C3CCCN(c4cnc5nccnc5c4)C3)CC2)c1` (stereo unspecified): 737 s; for `Cc1ccc2ncc(C(=O)NCCCOC(C)C)c(=O)n2c1`: 656 s.

The compound `Cc1ccc(C(=O)N2CCC3(C2)C(=O)N(C)c2ccccc23)cc1` (stereo unspecified) returned an RP-LC retention time of 792 s. `O=C(c1cccc(Br)c1)N1CCN(c2cc(-c3ccc(F)cc3)[nH]n2)CC1` yielded an RP-LC retention time of 864 s. Turning to `O=C(NCc1ccccn1)c1ccc2c(c1)N(C(=O)c1ccc(F)cc1)CC2`, the RP-LC retention time was 653 s. The same measure for `Cn1cccc1C(=O)C(=O)NCc1ccc(Cl)cc1`: 906 s. Then `COC(=O)c1c(NCCCc2ccccc2)c2cc(F)ccc2[nH]c1=O`, with 848 s; and `Cc1cccc(Cc2cnc[nH]2)c1C`, with 667 s; and `CCOC(=O)CNC(=O)NCc1cccn1Cc1cccc(C)c1`, with 834 s. `CSc1ccc(NC(=O)NC2CCN(c3ccc(C)c(C)c3)C2=O)cc1` (stereo unspecified) came in with an RP-LC retention time of 897 s.

Turning to `CN(C)C(=O)c1cc2c(s1)CCC(C(=O)NCc1ccncc1)C2` (stereo unspecified), the RP-LC retention time is 556 s.

The compound `CC(=O)N1CCc2cc(N3CC(C(=O)Nc4cccc(Cl)c4)CC3=O)ccc21` (stereo unspecified) came in with an RP-LC retention time of 738 s. `Cc1c(-c2noc(-c3ccc(N(C)C)cc3)n2)nnn1-c1ccc(F)cc1`: the RP-LC retention time worked out at 1040 s. The same measure for `Cc1ccc(N2CCC(NC(=O)c3ccc(Br)o3)C2=O)cc1C` (stereo unspecified): 882 s; for `COc1ccc(CNC(=O)C(C)n2ccc3cc(S(=O)(=O)N4CCCCC4)ccc32)c(OC)c1` (stereo unspecified): 959 s; for `O=C(Nc1ccc(F)cc1F)N1CCC(N2CCN(Cc3ccccc3)C(=O)C2=O)CC1`: 681 s. The compound `CC1(C(=O)NCc2ccccc2)CN(S(C)(=O)=O)CC(=O)N1c1ccc(F)cc1` (stereo unspecified) yielded an RP-LC retention time of 750 s. Then `Cc1nn2c(CNC(=O)C3CCC3)c(-c3ccccc3)nc2s1`, with 743 s; and `CCNC(=O)c1ccc(-n2cccc2)nc1`, with 708 s. Then `COc1ccc(CN2C=C(C(=O)OCc3ccccc3Cl)C(C)=NS2(=O)=O)cc1`, with 1170 s; and `O=C(NCc1cccs1)C(=O)Nc1ccncc1`, with 548 s.

Regarding `Cc1c(C)n(C)c2ccc(C(=O)NCC(C)C)cc12`, the RP-LC retention time was found to be 909 s. Then `O=C(NC1(c2nc(-c3ccncc3)no2)CCCCC1)c1ccc(C(F)(F)F)cc1`, with 1030 s; and `Cc1cc2c(=O)n(CC(=O)NCc3ccc(F)cc3)ccc2s1`, with 751 s; and `CC(NC(=O)c1cccs1)C(=O)Nc1nc2ccccc2[nH]1` (stereo unspecified), with 612 s. The same measure for `CC(C(=O)NCCCN1CCN(C)CC1)n1c(=O)c(C(F)(F)F)nc2ccccc21` (stereo unspecified): 603 s; for `C=CCN1CCN(C(=O)C2CCN(c3nc(NC(C)=O)c(C(=O)N4CCCC4)s3)CC2)CC1`: 579 s.

The compound `Cc1cc(NC(=O)CN2CCc3[nH]c4c(C)c(C)ccc4c(=O)c3C2)ccc1F` yielded an RP-LC retention time of 626 s. The same measure for `Cc1ccc(N2CC(C(=O)N3CCC(NS(=O)(=O)c4ccccc4)CC3)CC2=O)cc1C` (stereo unspecified): 800 s; for `COc1ccccc1/C=C/c1nc(-c2cccc(-c3ccn[nH]3)c2)no1`: 976 s. Then `CCOc1ccccc1-c1noc(Cn2ncn3nc(-c4ccc(F)cc4)cc3c2=O)n1`, with 1080 s; and `CCCNC(=O)C(=O)NCC(c1ccc2c(c1)CCCN2C)N1CCCC1` (stereo unspecified), with 647 s. The same measure for `Cc1nc(-c2cccc(F)c2)sc1C(=O)N(C)C`: 799 s.

As for `Cc1cc(C)cc(NC(=O)C2CCN(S(C)(=O)=O)c3cc(Cl)ccc3O2)c1` (stereo unspecified), the RP-LC retention time came out at 1020 s. `CN1CC[C@@]23CCCC[C@@H]2[C@@H]1Cc1ccc(O)cc13` came in with an RP-LC retention time of 644 s.

For `COc1ccccc1NC(=O)C12CCC(C)(C(=O)C1)C2(C)C` (stereo unspecified), the RP-LC retention time came to 848 s. The same measure for `COc1ccc2nc(Nc3nc(-c4ccncc4)cs3)sc2c1`: 584 s; for `O=C(Nc1ccc(F)cc1F)N1CCCC(Cn2c(C3CC3)nc3cccnc32)C1` (stereo unspecified): 668 s; for `COc1ccccc1-c1cc(C(=O)N2CCCN(c3ccc(=O)n(-c4ccccc4)n3)CC2)[nH]n1`: 750 s. The same measure for `COc1cccc(-n2c(=O)c3sccc3n(Cc3nc(-c4ccccc4OC)no3)c2=O)c1`: 861 s; for `Cc1ccc(-c2cc3c(=O)n(Cc4noc(-c5ccccc5)n4)ccn3n2)c(C)c1`: 1160 s. The same measure for `Cc1cc(-c2nnc(C3CCC3)o2)c(C)n1CC(=O)NCc1ccc(F)c(Cl)c1`: 904 s; for `CN(C)c1ncncc1N1CCC(C(=O)N2CCN(c3cccc(Cl)c3)CC2)CC1`: 722 s; for `COc1ccc(N2C=C(C#N)S(=O)(=O)c3c(F)cccc32)c(OC)c1`: 893 s. Compound `O=C(CN1C(=O)NC2(CCCCC2)C1=O)Nc1cc(F)cc(F)c1` gave an RP-LC retention time of 827 s. Then `CCCNC(=O)C1=Cc2cc(Br)ccc2OC=C1`, with 944 s. Then `CCc1ccc(-n2nnc3c(=O)n(Cc4nc(-c5ccccc5Cl)no4)cnc32)cc1`, with 1120 s; and `COc1ccc(NC(=O)C2CCCN(c3nc4ccccc4nc3C(F)(F)F)C2)c(OC)c1` (stereo unspecified), with 1190 s. The same measure for `Cc1ccccc1C(=O)Nc1nc(-c2ccc3c(c2)NC(=O)CO3)c(C)s1`: 898 s; for `O=C(Cc1ccsc1)N1CCC(Nc2ncnc3c2CCC3)CC1`: 673 s.

The compound `O=C1c2ccccc2C(=O)N1CC(=O)N(Cc1ccccc1)c1cccc([N+](=O)[O-])c1` showed an RP-LC retention time of 916 s. As for `CCc1noc(NC(C)=O)c1-c1ccc(C)c(S(=O)(=O)N2CCC(C)CC2)c1`, the RP-LC retention time was determined as 929 s. Then `CN1C(=O)c2cccnc2Sc2cc(C(=O)NCc3ccccc3Cl)ccc21`, with 806 s; and `CC(=O)Nc1cc(C(=O)NCCN(C)C)ccc1Sc1ccc(Cl)cc1`, with 589 s. The same measure for `O=C(Cc1cn2cc(Br)ccc2n1)N1CCSCC1`: 570 s. The same measure for `COc1ccc(NC(=O)c2ccc3ncsc3c2)c([N+](=O)[O-])c1`: 800 s; for `COc1ccc(OCc2noc(CNC(=O)c3cc(-c4ccco4)on3)n2)cc1`: 832 s; for `O=C(COc1ccccc1)N1CC(n2cnnc2C2CC2)C1`: 620 s. Compound `CN1c2ccccc2C(=O)NC12CCN(C(=O)c1ccc(F)c(F)c1)CC2` had an RP-LC retention time of 746 s.

In the case of `CC(C(=O)NCCN1CCCC1)n1c2ccccc2c2cnn(C)c(=O)c21` (stereo unspecified), the RP-LC retention time is 607 s.

For the compound `Cc1cc(C(=O)N2CCOCC2)c2cccc(Cl)c2n1`, the RP-LC retention time stood at 682 s. In turn, `O=C(c1ccsc1)N1CCCn2cc(-c3ccccc3F)nc21` gave an RP-LC retention time of 673 s.
